According to publication PMC12150326 (The Journal of Organic Chemistry, 2025):
Where two headings read alike, the source gives them in different places.

Columns and labels:
bovine brain tubulin = assay: Tubulin polymerization inhibition; type: biochemical; settings: 10 μM tubulin
Experimental: Inhibition of tubulin polymerization was determined as described previously. In brief, 10 μM bovine brain tubulin (PurSolutions, LLC (puresoluble.com)) was incubated under conditions strongly promoting polymerization of tubulin (1 M NaGlutamate, 0.1 M Mes (Morpholinoethanesulfonic acid), 1 mM MgCl2, 0.5 mM GTP, pH 6.9), in the absence or presence of 3.3 or 33 μM test compound, incubated for 30 min at 37 °C, then centrifuged at 100,000g for 8 min, and the top 3/4 of the supernatant removed. Protein concentration was measured, and polymerization was determined as pelletable protein lost from the supernatant.

A549/ATCC = type: cell-based, human
Experimental: (§1) (aR)-6, (aS)-6, (aS)-iso -6, and (aR)-iso -6 were submitted to the 60 Cell Screen panel and evaluated at 5 doses (100 μM, 10 μM, 1 μM, 0.1 μM, and 0.01 μM). […] The complete report from this submission is available at the publisher’s Web site as a separate Supporting Information file. For COMPARE analysis, TGI levels of response for (aR)-DM-MTC (6) and (aS)-iso-DM-MTC were compared to those of several established tubulin inhibitors previously tested in the NCI-60 screen.

786-0 = type: cell-based, human
Experimental: as §1

T-47D = type: cell-based, human
Experimental: as §1

TK-10 = type: cell-based, human
Experimental: as §1

MDA-MB-468 = type: cell-based, human
Experimental: as §1

SK-OV-3 = type: cell-based, human
Experimental: as §1

SR = type: cell-based, human
Experimental: as §1

MALME-3M = type: cell-based, human
Experimental: as §1

CCRF-CEM = type: cell-based, human
Experimental: as §1

SK-MEL-5 = type: cell-based, human
Experimental: as §1

HCC-2998 = type: cell-based, human
Experimental: as §1

UO-31 = type: cell-based, human
Experimental: as §1

NCI-H460 = type: cell-based, human
Experimental: as §1

HOP-92 = type: cell-based, human
Experimental: as §1

NCI 60 cell lines = type: cell-based, human
Experimental: as §1

A498 = type: cell-based, human
Experimental: as §1

SNB-19 = type: cell-based, human
Experimental: as §1

BT-549 = type: cell-based, human
Experimental: as §1

ACHN = type: cell-based, human
Experimental: as §1

SNB-75 = type: cell-based, human
Experimental: as §1

SF-295 = type: cell-based, human
Experimental: as §1

MCF7 = type: cell-based, human
Experimental: as §1

SF-539 = type: cell-based, human
Experimental: as §1

Compound: COc1cc(C)c(-c2ccc(=O)c(OC)cc2C)c(OC)c1OC (single isomer, unassigned) [(aS)-iso-6]
- Polymerization Inhibition (%) 3.3 μM (bovine brain tubulin; 3.3 μM compound): 0%
- Polymerization Inhibition (%) 33 μM (bovine brain tubulin; 33 μM compound): 0%
- Log10GI50 (A549/ATCC): -4.45 Molar
- Log10LC50 (A549/ATCC): > -4.00 Molar
- Log10TGI (A549/ATCC): > -4.00 Molar
- GI50 (A549/ATCC; Homo sapiens): 35.5 µM
- Log10GI50 (A549/ATCC; […]): -4.45 Molar
- Log10GI50 (786-0): -4.33 Molar
- Log10LC50 (786-0): > -4.00 Molar
- Log10TGI (786-0): > -4.00 Molar
- GI50 (786-0; Homo sapiens): 46.8 µM
- Log10GI50 (786-0; […]): -4.33 Molar
- Log10GI50 (T-47D): -4.58 Molar
- Log10LC50 (T-47D): > -4.00 Molar
- Log10TGI (T-47D): > -4.00 Molar
- GI50 (T-47D; Homo sapiens, T47D): 26.3 µM
- Log10GI50 (T-47D; […]): -4.58 Molar
- Log10GI50 (TK-10): > -4.00 Molar
- Log10LC50 (TK-10): > -4.00 Molar
- Log10TGI (TK-10): > -4.00 Molar
- GI50 (TK-10; Homo sapiens): > 100 µM
- Log10GI50 (TK-10; […]): > -4 Molar
- Log10GI50 (MDA-MB-468): -4.85 Molar
- Log10LC50 (MDA-MB-468): > -4.00 Molar
- Log10TGI (MDA-MB-468): > -4.00 Molar
- GI50 (MDA-MB-468; Homo sapiens): 14.1 µM
- Log10GI50 (MDA-MB-468; […]): -4.85 Molar
- Log10GI50 (SK-OV-3): -4.57 Molar
- Log10LC50 (SK-OV-3): > -4.00 Molar
- Log10TGI (SK-OV-3): > -4.00 Molar
- GI50 (SK-OV-3; Homo sapiens): 26.9 µM
- Log10GI50 (SK-OV-3; […]): -4.57 Molar
- Log10GI50 (SR): -5.24 Molar
- Log10LC50 (SR): > -4.00 Molar
- Log10TGI (SR): > -4.00 Molar
- GI50 (SR; Homo sapiens): 5.75 µM
- Log10GI50 (SR; […]): -5.24 Molar
- Log10GI50 (MALME-3M): -4.42 Molar
- Log10LC50 (MALME-3M): > -4.00 Molar
- Log10TGI (MALME-3M): > -4.00 Molar
- Log10GI50 (CCRF-CEM): -4.53 Molar
- Log10LC50 (CCRF-CEM): > -4.00 Molar
- Log10TGI (CCRF-CEM): > -4.00 Molar
- GI50 (CCRF-CEM; Homo sapiens): 29.5 µM
- Log10GI50 (CCRF-CEM; […]): -4.53 Molar
- Log10GI50 (SK-MEL-5): -4.34 Molar
- Log10LC50 (SK-MEL-5): > -4.00 Molar
- Log10TGI (SK-MEL-5): > -4.00 Molar
- GI50 (SK-MEL-5; Homo sapiens): 45.7 µM
- Log10GI50 (SK-MEL-5; […]): -4.34 Molar
- Log10GI50 (HCC-2998): -4.48 Molar
- Log10LC50 (HCC-2998): > -4.00 Molar
- Log10TGI (HCC-2998): > -4.00 Molar
- GI50 (HCC-2998; Homo sapiens): 33.1 µM
- Log10GI50 (HCC-2998; […]): -4.48 Molar
- Log10GI50 (UO-31): -4.34 Molar
- Log10LC50 (UO-31): > -4.00 Molar
- Log10TGI (UO-31): > -4.00 Molar
- GI50 (UO-31; Homo sapiens): 45.7 µM
- Log10GI50 (UO-31; […]): -4.34 Molar
- Log10GI50 (NCI-H460): -4.50 Molar
- Log10LC50 (NCI-H460): > -4.00 Molar
- Log10TGI (NCI-H460): > -4.00 Molar
- GI50 (NCI-H460; Homo sapiens): 31.6 µM
- Log10GI50 (NCI-H460; […]): -4.5 Molar
- Log10GI50 (HOP-92): -4.99 Molar
- Log10LC50 (HOP-92): > -4.00 Molar
- Log10TGI (HOP-92): > -4.00 Molar
- GI50 (HOP-92; Homo sapiens): 10.2 µM
- Log10GI50 (HOP-92; […]): -4.99 Molar
- fold less potent than (aR)-6 in NCI-60 screen (NCI 60 cell lines): approximately 10 fold
- selectivity range (NCI 60 cell lines; NCI-60, GI50 level): 1.46 log units
- Log10 Range at TGI (NCI 60 cell lines; NCI-60 cell line selectivity): 0.81
- GI50 (NCI 60 cell lines; NCI-60 mean): 27 µM
- Mean TGI (NCI 60 cell lines; NCI-60 mean total growth inhibition): 91 µM
- Delta Log10GI50 (NCI 60 cell lines; mean graph): 0.89
- Delta Log10LC50 (NCI 60 cell lines; mean graph): 0
- Delta Log10TGI (NCI 60 cell lines; mean graph): 0.77
- Range Log10GI50 (NCI 60 cell lines; mean graph): 1.46
- Range Log10LC50 (NCI 60 cell lines; mean graph): 0.0
- Range Log10TGI (NCI 60 cell lines; mean graph): 0.81
- _MID Log10GI50 (NCI 60 cell lines; mean graph midpoint): -4.57 Molar
- _MID Log10LC50 (NCI 60 cell lines; mean graph midpoint): -4.0 Molar
- _MID Log10TGI (NCI 60 cell lines; mean graph midpoint): -4.04 Molar
- Log10GI50 (A498): -4.85 Molar
- Log10LC50 (A498): > -4.00 Molar
- Log10TGI (A498): -4.28 Molar
- GI50 (A498; Homo sapiens): 14.1 µM
- Log10GI50 (A498; […]): -4.85 Molar
- Log10GI50 (SNB-19): -4.53 Molar
- Log10LC50 (SNB-19): > -4.00 Molar
- Log10TGI (SNB-19): > -4.00 Molar
- GI50 (SNB-19; Homo sapiens): 5.37 µM
- Log10GI50 (SNB-19; […]): -5.27 Molar
- Log10GI50 (BT-549): -4.82 Molar
- Log10LC50 (BT-549): > -4.00 Molar
- Log10TGI (BT-549): > -4.00 Molar
- GI50 (BT-549; Homo sapiens): 15.1 µM
- Log10GI50 (BT-549; […]): -4.82 Molar
- Log10GI50 (ACHN): -4.07 Molar
- Log10LC50 (ACHN): > -4.00 Molar
- Log10TGI (ACHN): > -4.00 Molar
- GI50 (ACHN; Homo sapiens): 85.1 µM
- Log10GI50 (ACHN; […]): -4.07 Molar
- Log10GI50 (SNB-75): -5.27 Molar
- Log10LC50 (SNB-75): > -4.00 Molar
- Log10TGI (SNB-75): -4.36 Molar
- GI50 (SNB-75; Homo sapiens): 30.9 µM
- Log10GI50 (SNB-75; […]): -4.51 Molar
- Log10GI50 (SF-295): -4.64 Molar
- Log10LC50 (SF-295): > -4.00 Molar
- Log10TGI (SF-295): > -4.00 Molar
- GI50 (SF-295; Homo sapiens): 25.7 µM
- Log10GI50 (SF-295; […]): -4.59 Molar
- Log10GI50 (MCF7): -4.60 Molar
- Log10LC50 (MCF7): > -4.00 Molar
- Log10TGI (MCF7): > -4.00 Molar
- GI50 (MCF7; Homo sapiens): 25.1 µM
- Log10GI50 (MCF7; […]): -4.6 Molar
- Log10GI50 (SF-539): -4.59 Molar
- Log10LC50 (SF-539): > -4.00 Molar
- Log10TGI (SF-539): > -4.00 Molar
- GI50 (SF-539; Homo sapiens): 29.5 µM
- Log10GI50 (SF-539; […]): -4.53 Molar
